Patent US10889543B2, “Fine-tune modulators of neuronal excitability for neuropsychiatric disorders” (THE BOARD OF REGENTS OF THE UNIVERSITY OF TEXAS SYSTEM, priority 2016, dated 2021)
Residues, ends and D or L forms follow the SMILES beside them. *: point of attachment. Cbz = O=C(OCc1ccccc1)*; Boc = CC(C)(C)OC(=O)*

Assays:
Nav1.6 C-tail = target: T1, Nav1.6 C-tail (Homo sapiens, UniProt Q9UQD0); assay: Surface plasmon resonance spectroscopy, immobilized Nav1.6 C-tail; format: binding; settings: SPR, 25° C., 10-200 μM
T1 construct: FGF14WT and Nav1.6 C-tail were immobilized; made in house
Experimental: Surface Plasmon Resonance Spectroscopy. SPR experiments were performed on a Biacore T100 instrument (Biacore GE), and the interaction between FGF14 to Nav1.6 channel was studied at 25° C. To analyze the effects of ZL0181 on channel binding, FGF14WT and Nav1.6 C-tail were immobilized using acetate 5.5 with amine coupling kit on CM5 sensor chip, and obtaining RU 3000 and 4500 respectively. No protein was coupled to the control flow channel of the chip. ZL0181 (5-200 μM) in HBS-P+(50 μl/min) buffer ([…], 150 mM NaCl, 0.005% (v/v) P20), pH 7.4 were injected over the chip for 180 s. Next, HB S-P+ buffer without protein were passed over the chip for 180 s to monitor dissociation, and the chip surface was then regenerated with NaCl (200 mM). For each injection of ZL0181 binding to the FGF14WT or the Nav1.6, the nonspecific responses were subtracted from the responses obtained for control prior to data analysis. Maximal equilibrium responses were plotted against the concentrations of ZL0181, and the equilibrium dissociation constant (KD) was calculated from the fitted saturation binding curve. Fitted binding curves were judged to be accurate based on the distribution of the residuals (even and near zero). Graphs were plotted in GraphPad Prism 6 Software (La Jolla, Calif.).
The role of ZL0181 was further determined by surface plasmon resonance spectroscopy. […]

Nav1.6 channels = target: T2, Nav1.6 channels (Homo sapiens, UniProt Q9UQD0); assay: Whole-cell patch clamp of Na+ currents in HEK-Nav1.6 cells expressing GFP (Nav1.6 channels alone); format: cell-based
T2 construct: expressed in transfected cells; host or cells: HEK-Nav1.6 (HEK293 stably expressing Nav1.6, G418 selection)
Experimental: To determine the role of compounds of the invention in Nav1.6 channels alone and Nav1.6 channels in the presence of FGF14, 2×2 experimental groups using compound ZL0181, an exemplary embodiment, were designed. HEK-Nav1.6 cells were transiently transfected with GFP or […] and treated with either DMSO (0.15% final concentration, control group) or ZL0181 (20 μM, final concentration) 20-60 min prior to the experiments. […] Thus, ZL0181 inhibits peak current amplitude of Na1.6 current.
Furthermore, using a range of doses from 1 μM to 100 μM a dose-response profile for ZL0181 in HEK293-Nav1.6 cells alone and HEK-Nav1.6 cells transfected with FGF14 was developed.
HEK-Nav1.1, […] HEK-Nav1.6 were maintained in medium composed of equal volumes of DMEM and F-12 (Invitrogen) supplemented with 0.05% glucose, 0.5 mm pyruvate, 10% fetal bovine serum, 100 units/ml penicillin, 100 μg/ml streptomycin incubated at 37° C. with 5% CO2. For selection of Nav1.1 and Nav1.2, 500 μg/ml G418 (Invitrogen) was used, and for selection of Nav1.6, 80 μg/ml G418 (Invitrogen) was used. Cells were transfected according to manufacturer's instructions at 90-100% confluency using Lipofectamine 2000 (Invitrogen). See e.g., Shavkunov, A., et al. Assay and drug development technologies 10(2):148-160 (2012).
Detailed methods for path-clamp experiments is known in the art. See e.g., Ali, S. R., et al., Journal of Biological Chemistry 291:11268 (2016).

T2 sequence (Q9UQD0 whole entry): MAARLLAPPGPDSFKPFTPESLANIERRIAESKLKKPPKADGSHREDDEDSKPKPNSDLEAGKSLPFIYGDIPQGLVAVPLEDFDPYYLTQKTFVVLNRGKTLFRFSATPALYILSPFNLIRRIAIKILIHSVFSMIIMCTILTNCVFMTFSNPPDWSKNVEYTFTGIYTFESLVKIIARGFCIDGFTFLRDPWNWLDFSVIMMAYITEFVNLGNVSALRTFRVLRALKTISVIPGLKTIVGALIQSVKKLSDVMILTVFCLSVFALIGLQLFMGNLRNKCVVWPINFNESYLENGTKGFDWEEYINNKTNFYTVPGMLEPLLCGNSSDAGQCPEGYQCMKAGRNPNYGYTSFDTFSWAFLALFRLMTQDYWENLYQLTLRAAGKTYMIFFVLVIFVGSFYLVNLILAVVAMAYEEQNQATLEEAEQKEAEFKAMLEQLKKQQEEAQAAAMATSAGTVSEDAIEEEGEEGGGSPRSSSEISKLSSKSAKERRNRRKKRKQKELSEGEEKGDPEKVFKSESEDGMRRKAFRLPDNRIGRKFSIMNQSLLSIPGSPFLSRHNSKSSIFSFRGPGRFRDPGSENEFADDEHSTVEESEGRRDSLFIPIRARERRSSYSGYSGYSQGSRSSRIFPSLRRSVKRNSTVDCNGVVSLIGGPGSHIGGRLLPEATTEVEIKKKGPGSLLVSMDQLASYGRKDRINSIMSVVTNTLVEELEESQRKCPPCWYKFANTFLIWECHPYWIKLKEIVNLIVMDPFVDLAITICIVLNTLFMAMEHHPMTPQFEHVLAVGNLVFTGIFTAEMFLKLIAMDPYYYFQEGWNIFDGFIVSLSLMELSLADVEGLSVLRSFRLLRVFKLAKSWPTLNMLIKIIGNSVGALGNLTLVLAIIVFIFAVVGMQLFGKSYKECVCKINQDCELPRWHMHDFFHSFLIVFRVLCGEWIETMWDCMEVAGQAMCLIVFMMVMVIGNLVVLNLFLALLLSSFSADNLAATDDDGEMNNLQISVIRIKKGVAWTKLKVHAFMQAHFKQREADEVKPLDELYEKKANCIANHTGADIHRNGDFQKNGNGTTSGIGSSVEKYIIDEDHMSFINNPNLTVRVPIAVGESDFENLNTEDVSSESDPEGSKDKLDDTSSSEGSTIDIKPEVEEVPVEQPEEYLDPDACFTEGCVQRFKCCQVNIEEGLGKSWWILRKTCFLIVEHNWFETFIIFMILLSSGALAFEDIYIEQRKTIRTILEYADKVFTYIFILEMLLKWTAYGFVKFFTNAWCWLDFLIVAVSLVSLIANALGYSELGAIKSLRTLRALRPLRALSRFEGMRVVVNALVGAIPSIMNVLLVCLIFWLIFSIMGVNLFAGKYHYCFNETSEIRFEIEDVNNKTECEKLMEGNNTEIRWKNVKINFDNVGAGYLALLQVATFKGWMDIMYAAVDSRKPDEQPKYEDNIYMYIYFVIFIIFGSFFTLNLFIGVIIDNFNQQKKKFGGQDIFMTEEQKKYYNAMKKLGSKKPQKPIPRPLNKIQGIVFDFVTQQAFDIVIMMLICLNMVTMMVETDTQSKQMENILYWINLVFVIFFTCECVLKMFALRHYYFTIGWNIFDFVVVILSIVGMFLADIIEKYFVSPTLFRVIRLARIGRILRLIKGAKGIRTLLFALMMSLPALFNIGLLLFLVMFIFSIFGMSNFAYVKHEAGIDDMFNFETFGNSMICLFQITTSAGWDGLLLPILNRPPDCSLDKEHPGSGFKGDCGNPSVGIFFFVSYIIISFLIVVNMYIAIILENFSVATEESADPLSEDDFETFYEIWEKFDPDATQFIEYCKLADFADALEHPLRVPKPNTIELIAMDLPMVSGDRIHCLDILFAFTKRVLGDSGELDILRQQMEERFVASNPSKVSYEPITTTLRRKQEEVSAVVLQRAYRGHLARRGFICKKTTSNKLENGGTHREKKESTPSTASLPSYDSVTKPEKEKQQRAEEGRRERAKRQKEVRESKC
T1 sequence (Q9UQD0 1797-1980 limits assumed): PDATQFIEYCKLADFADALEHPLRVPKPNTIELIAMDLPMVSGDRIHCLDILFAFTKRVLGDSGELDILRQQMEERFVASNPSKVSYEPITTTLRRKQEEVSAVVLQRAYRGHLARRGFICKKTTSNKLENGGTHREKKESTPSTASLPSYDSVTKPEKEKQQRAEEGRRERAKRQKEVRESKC

In the case of `CC(C)C[C@H](NC(=O)[C@H](Cc1ccccc1)NC(=O)OCc1ccccc1)C(=O)N1CCC[C@H]1C(=O)N[C@@H](CCCCNC(=O)OC(C)(C)C)C(N)=O` [ZL0181, Z-Phe-Leu-Pro-Lys(Boc)-NH2] (Cbz-FLPK(Boc)-NH2), the Kd (Nav1.6 C-tail) is reported as 212 µM, the “activation and inactivation properties of Nav channel alone” value (Nav1.6 channels; 20 μM, HEK-Nav1.6 cells with GFP) is reported as “does not change activation and inactivation properties” and the IC50 (Nav1.6 channels; HEK293-Nav1.6 cells alone, doses 1 μM to 100 μM, read-out: IC50, inhibition of Nav1.6 encoded currents) is reported as 19.7 ± 5.7 µM. The “Nav1.6-mediated peak current density” value (Nav1.6 channels; HEK-Nav1.6 cells with GFP, pretreated with 20 μM, n=12, DMSO control −73.8±13.6) was −20.9±3.4 pA/pF.
